# US20140127120A1, “THERAPEUTIC AGENT FOR BONE FRACTURE COMPRISING CARBON DIOXIDE AS AN ACTIVE INGREDIENT” (NEOCHEMIR INC., priority 2011, published 2014)
# Experiments:
# Type in all cases: in vivo, rat
# [1] = tested on: 5-Week-old Wister rats; assay: Bone growth promoting effect in exercise-loaded rats
# Procedure: (§1) Bone growth promoting effect in exercise-loaded rats (using a carbon dioxide external administration device as a means for absorbing a therapeutic agent for bone fracture, a bone growth promoting agent, or a therapeutic or prophylactic agent for bone diseases containing carbon dioxide as an active ingredient)
# 5-Week-old Wister rats were matched based on their body weight and were divided into two groups (a control group: n=8; an exercise-loaded group: n=16). The running training for 30 minutes per day using an activity wheel was given to all rats for five continuous days. The exercise-loaded rats were matched based on the running distance on the fourth and fifth day as well as the body weight on the fifth day and were divided into two groups (a training group: n=8; a carbon dioxide absorption group: n=8). After shaving the lower body hair of all rats, the running training for 30 minutes per day using an activity wheel was given to the training group and the carbon dioxide absorption group. This training was done five times a week for 4 weeks. […] The tibias of both legs were collected from the rats, and then the entire length of the tibias was measured by X-ray. […] An auxotonic gristle plate of the tissue section was stained with Safranine O and its length was measured.
# [2] = tested on: 12-week-old SD rats; assay: Bone fracture healing promoting effect in rats (simple femur fracture); details: carbon dioxide absorption 20 minutes, X-ray
# From the text: as §1, with “Bone fracture healing” for “Bone growth”, “in” for “in exercise-loaded”
# According to the literature (Kokubo, T et al., J Orthop Res. 2003 May; 21(3): 503-510), a simple fracture was made in a femur of 12-week-old SD rats (n=23). The rats were matched based on their body weight and were divided into two groups (a control group: n=11; a carbon dioxide absorption group: n=12). In the same procedures as Example 1 except for adopting 20 minutes of the carbon dioxide absorption time, carbon dioxide absorption into the fractured limb was conducted. After making a fracture, X-ray images of the femur were taken for 2 rats of each group at the first week, 3 rats of each group at the second week, and 6 rats of the control group and the carbon dioxide absorption group at the third week. After the completion of the test, all rats were euthanized and the femurs were collected from the rats.
# [3] = tested on: 5-Week-old SD rats; assay: Bone growth promoting effect in rats (transdermal carbon dioxide absorption via external administration device)
# From the text: Bone growth promoting effect in rats (using a carbon dioxide external administration device as a means for absorbing a therapeutic agent for bone fracture, a bone growth promoting agent, or a therapeutic or prophylactic agent for bone diseases containing carbon dioxide as an active ingredient)
# 5-Week-old SD rats were used as test animals. A carbon dioxide absorption aid consisting of 93.77% by weight of water, 5% by weight of glycerin, 0.65% by weight of carbomer, 0.15% by weight of sodium alginate, 0.15% by weight of sodium dihydrogen phosphate, 0.18% by weight of sodium hydroxide, 0.10% by weight of methylparaben was applied twice a week to a hair-shaved right lower limb of a rat of the carbon dioxide absorption group (n=6) in a thickness of 2 mm under anesthesia according to the patent document 7. The lower body of the rat was covered to seal with a bag having 4 cm width and 4 cm length and the top of the bag was bound tightly with a rubber band. Then, the bag was filled with 100% concentration of carbon dioxide through a vinyl tube from a carbon dioxide bomb in order to allow carbon dioxide to be absorbed for 10 minutes. The control group (n=3) was subjected to only the anesthetic procedure. The above mentioned procedures were continued for 3 months. After 3 months, the tibias of both legs were collected from all rats and the length of them was measured by X-ray. […]
compound,measurement,setting,value
O=C=O [carbon dioxide],length of the auxotonic gristle plate versus training group and control group,"[1]; 4 weeks, Safranine O staining, FIG. 4",statistically significantly longer
same,length of tibias versus training group,"[1]; running training plus carbon dioxide absorption to both lower limbs 10 minutes, five times a week for 4 weeks, X-ray, P<0.1, FIG. 3",statistically significantly longer
same,fracture healing at the first and second week,[2]; first and second week,not healed
same,rats with fracture completely healed at the third week,[2]; third week (control group 1/6),6/7
same,length of the right tibia (ratio of the length between the right tibia and the left tibia) versus control group,"[3]; 100% carbon dioxide to right lower limb 10 minutes twice a week for 3 months, X-ray, P<0.05, FIG. 1",statistically significantly longer
same,number of proliferating cells (PCNA staining of tibia auxotonic gristle area) versus control group,"[3]; after 3 months of carbon dioxide absorption, FIG. 2",larger
